Our source for the melting point and 5-HT7 receptor affinity values is patent publication US6486173B2, “5-HT7 receptor antagonists” (Bristol-Myers Squibb Pharma Company, priority 1998, dated 2002).

Like-named read-outs stand apart in the source and are kept apart here.

One data set has as its target 5-HT7 receptor (Homo sapiens, UniProt P34969). The settings on record: cited from earlier work.
[1] abbreviates: background statement, profile consistent across species.

Sequence of 5-HT7 receptor (P34969 whole entry): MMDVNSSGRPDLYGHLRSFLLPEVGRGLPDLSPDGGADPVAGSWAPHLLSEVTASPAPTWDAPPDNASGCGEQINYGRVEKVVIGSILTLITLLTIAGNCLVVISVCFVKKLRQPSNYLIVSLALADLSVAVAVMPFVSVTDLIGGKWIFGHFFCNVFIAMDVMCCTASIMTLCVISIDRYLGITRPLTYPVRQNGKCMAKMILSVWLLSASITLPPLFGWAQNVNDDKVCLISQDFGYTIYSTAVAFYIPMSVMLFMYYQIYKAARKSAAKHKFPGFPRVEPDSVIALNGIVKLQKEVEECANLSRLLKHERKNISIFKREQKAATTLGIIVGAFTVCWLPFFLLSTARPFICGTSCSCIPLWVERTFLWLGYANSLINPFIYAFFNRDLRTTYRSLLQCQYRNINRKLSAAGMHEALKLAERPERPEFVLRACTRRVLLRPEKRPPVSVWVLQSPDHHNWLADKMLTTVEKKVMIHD

In general, melting point refers to the temperature, or range, at which the solid turns liquid. Consider `Fc1ccc(C2(CCCN3Cc4ccccc4C3)OCCO2)cc1.O=C(O)/C=C\C(=O)O`, for which the melting point was 141 to 142 °C. Turning to `O=C(CCCN1CCc2ccccc2C1)c1ccc(F)cc1.O=C(O)/C=C\C(=O)O`, the melting point fell in the range of 129 to 130 °C. For `O=C(CCCN1Cc2cc3ccccc3cc2C1)c1ccc(F)cc1.O=C(O)/C=C\C(=O)O`, the melting point is 157 to 158 °C. `O=C(CCCN1CCc2ccccc2C1)c1ccncc1.O=C(O)/C=C\C(=O)O`: the melting point was 108 to 109 °C. On the same count and under the same terms, with `O=C(CCCN1Cc2cccc3cccc(c23)C1)c1ccc(F)cc1.O=C(O)/C=C\C(=O)O` the figure was 151 to 155 °C; with `O=C(CCCN1CCc2ccccc2C1)c1cccs1.O=C(O)/C=C\C(=O)O`, 154 to 155 °C; with `COc1cc2c(cc1OC)CN(CCCC(=O)c1ccc(F)cc1)CC2.O=C(O)/C=C\C(=O)O`, 144 to 146 °C. On the same count and under the same terms, the figure for `O=C(O)/C=C\C(=O)O.O=c1[nH]c2ccccc2n1CCCN1CCc2ccccc2C1` is 153 to 154 °C.

`O=C(O)/C=C\C(=O)O.c1ccc(-c2cc(CN3CCc4ccccc4C3)on2)cc1` showed a melting point of 190 to 192 °C. `Fc1ccc(OCCCN2Cc3ccccc3C2)cc1.O=C(O)/C=C\C(=O)O` registered a melting point of 115 to 117 °C. Still for that read-out and setting: the figure for `Cl.Fc1ccc(SCCCN2CCc3ccccc3C2)cc1` is 171 to 173 °C; for `Cl.Fc1ccc(SCCCN2Cc3ccccc3C2)cc1` it is 125 to 126 °C. Same read-out and setting: with `O=C(O)/C=C\C(=O)O.O=S(=O)(CCCN1Cc2ccccc2C1)c1ccc(F)cc1` the figure was 151 to 152 °C; with `Cl.O=S(=O)(CCCN1CCc2ccccc2C1)c1ccc(F)cc1`, 212 to 215 °C.

For the compound `Cc1ccc(C2(CCCN3Cc4ccccc4C3)OCCO2)cc1.O=C(O)/C=C\C(=O)O`, the melting point is 159 to 161 °C (dec.). Same read-out and setting: the figure for `Cl.O=S(=O)(c1ccc(F)cc1)N1CCC(N2CCc3ccccc3C2)CC1` is above 240 °C; for `Fc1ccc(C2(CCCN3CCc4ccccc4C3)OCCO2)cc1.O=C(O)/C=C\C(=O)O` it is 160 to 162 °C; for `O=C(O)/C=C\C(=O)O.OC(CCCN1Cc2ccccc2C1)c1ccc(F)cc1` (stereo not drawn) it is 113 to 114 °C. Regarding 5-HT [Example 5-HT], the 5-HT7 receptor affinity result on 5-HT7 receptor (setting [1]) is reported as “high 5-HT7 receptor affinity”. As for `O=C(CCCN1CC[C@@H]2CCCC[C@H]2C1)c1ccc(F)cc1.O=C(O)/C=C\C(=O)O` (racemic), the melting point was 157 to 158 °C.

On to `Fc1ccc(C2=NOC(CN3CCc4ccccc4C3)C2)cc1.O=C(O)/C=C\C(=O)O` (racemic), for which the melting point lay within 153 to 155 °C. As for `COc1ccc2[nH]cc(CCN)c2c1` [Example 5-MeOT, 5-MeOT], the 5-HT7 receptor affinity entry at 5-HT7 receptor is on record as “high 5-HT7 receptor affinity”. With `CCCN(CCC)C1CCc2cccc(O)c2C1` (stereo not drawn) [Example 8-OHDPAT, 8-OHDPAT], at 5-HT7 receptor, the 5-HT7 receptor affinity entry is “moderate affinity”.

In the case of `O=C1CC2(CCCC2)CC(=O)N1CCCCN1CCN(c2ncccn2)CC1` [buspirone], the 5-HT7 receptor affinity result at 5-HT7 receptor (setting [1]) is “low affinity”. On to `CC(C)NCC(O)COc1cccc2[nH]ccc12` (stereo not drawn) [pindolol], for which the 5-HT7 receptor affinity entry at 5-HT7 receptor is “low affinity”.

Take `Cc1nc2sccn2c(=O)c1CCN1CCC(=C(c2ccc(F)cc2)c2ccc(F)cc2)CC1` [ritanserin]: at 5-HT7 receptor (setting [1]), the 5-HT7 receptor affinity result is given as “moderate affinity”. On to `CNS(=O)(=O)Cc1ccc2[nH]cc(CCN(C)C)c2c1` [sumatriptan], for which the 5-HT7 receptor affinity entry at 5-HT7 receptor (setting [1]) is on record as “low affinity”.
